Experimental data reported in the NIST ThermoML archive (doi:10.1021/acs.jced.7b00690).
± gives the expanded uncertainty stated by the source.

Experiment: mn = molality of the nth substance listed, in mol/kg
Details: 100 kPa, Liquid, Vibrating tube method

## O=C([O-])C(=O)[O-].[Na+].[Na+] [sodium oxalate] + O
298.15 K, m1 = 0.263
  mass density: 1025.1 ± 55 kg/m3
298.15 K, m1 = 0.265
  mass density: 1020.9 ± 12 kg/m3
298.15 K, m1 = 0.272
  mass density: 1020.9 ± 8 kg/m3
323.15 K, m1 = 0.317
  mass density: 1020.3 ± 8.9 kg/m3
323.15 K, m1 = 0.334
  mass density: 1022.4 ± 9 kg/m3
343.15 K, m1 = 0.385
  mass density: 1016.5 ± 9.5 kg/m3
